2 compounds from patent US9232785B2, “Method for reducing sunburn damage in plants” (BASF SE, priority 2009, dated 2016) can be followed below.

The test system of assay [1] is sunburn injury on winter barley. Briefly: Preventive action on winter barley against sunburn injury, field trial (Example 3). As to conditions: Germany, applied at BBCH 53, evaluated 22 days after application, 0 = as untreated control, 100 = no sunburn symptoms, UV filter 2 L/ha (500 g ai/ha), Actives A & B 0.8 & 0.8 L/ha (240 & 297 g ai/ha). The class given is in vivo. Here is the method: As active substance a mixture of active substances was used called “Actives A & B”, which was prepared by mixing Active A and Active B. Active A was a fungicidal suspension concentrate comprising 6 wt % epoxiconazol, 20.8 wt % boscalid, 11.2-12.6 wt % fatty alcohol alkoxylate, C8-alkyl glucoside, and phenolsulfonic acid-formaldehyde-polycondensate sodium salt (commercially available pesticide formulation from BASF SE as Champion®). Active B a fungicidal suspoemulsion comprising 20.6 wt % fenpropimorph, 11 wt % pyraclostrobin, 4.1 wt % epoxiconazol, 20.5 wt % solvent naphtha, 11 wt % fatty alcohol ethoxylate and 4.8 wt % phenolsulfonic acid-formaldehyde-polycondensate sodium salt (commercially available pesticide formulation from BASF SE as Diamant®). UV Filter A and UV filter B were prepared as described in examples 1 and 2.
The biological trial was conducted under field conditions in Germany. […] The level of sunburn injury was evaluated 22 days after application (% estimation of destroyed leaf area).
The sunburn injury assessments were converted into efficacies. […] The expected efficacies of active compound mixtures were determined using Colby's formula [R. S. Colby, “Calculating synergistic and antagonistic responses of herbicide combinations”, Weeds 15, 20-22 (1967)] and compared with the observed efficacies.

Assay [2] concerns sunburn injury on barley cultivar Finita. Briefly: Preventive action on winter barley against sunburn injury, field trial, two timings (Example 5). The class given is in vivo. The note with it: applied at BBCH 53, Actives A & B 0.8 l/ha, UV Filter 2.0 l/ha, Surround 10 kg/ha, % destroyed leaf area. Here is the method:
The biological trial was conducted under field conditions in Germany. The barley cultivar […] was planted and grown under standard conditions with adequate supply of water and nutrients. At BBCH 53 0.8 l/ha of Actives A & B and 2.0 l/ha UV Filter A or B were applied. For comparison, the Surround® (commercially available from Engelhard Corp., wettable powder comprising 95 wt % kaolin) was applied at a rate of 10 kg/ha. The level of sunburn injury was evaluated 15 and 22 days after application (% estimation of destroyed leaf area).

Take `COCCOCCOCCOCCOCCOCCOCCOC(=O)C(C#N)=C(c1ccccc1)c1ccccc1` [UV Filter A, 2-Cyano-3,3-diphenyl-acrylsäure-[Pluriol A350E]-ester]: the Efficacy in assay [1] is listed as 4. For the same compound, in assay [2], the “% sunburn injury 15 days after application” value is given as 38% and the “% sunburn injury 22 days after application” value amounted to 96%.

Regarding `COCCOCCOCCOCCOCCOCCOCCOC(=O)CCc1cc(-n2nc3ccccc3n2)c(O)c(C(C)(C)C)c1` [UV Filter B, 3-(3-Benzotriazol-2-yl-5-tert-butyl-4-hydroxyphenyl)-propiosäure-[Pluriol A350E]-ester], the Efficacy in assay [1] is 3. Moreover, in assay [2], the “% sunburn injury 15 days after application” value worked out at 36% and the “% sunburn injury 22 days after application” value is on record as 97%.
